# “Also recorded” adds a separate entry of the source.
# Columns and labels:
# [1] = molecular target: PI3Kα (Homo sapiens, UniProt P42336); assay: PI3Kα enzymatic assay (Kinase-Glo Luminescent Kinase assay); format: biochemical
# Protocol: (§3) Kinase-Glo Luminescent Kinase assay (Promega) was performed to determine the PI3Kα inhibitory activity, while ADP-Glo Luminescent assay (Promega) was performed to identify the inhibitory activity against PI3Kβ, γ, or δ. The kinase buffer was composed of HEPES (50 mM, pH 7.5), MgCl2 (3 mM), EGTA (1 mM), NaCl (100 mM), CHAPS (0.03%) and DTT (2 mM). The serially diluted compound solutions (2.5 mL) were successively added to a 384-well plate. Afterwards, the solution of kinase (2.5 mL) in the kinase buffer and the solution of substrate (5 mL) in the kinase buffer containing PIP2 and ATP were added to each well of the assay plate for starting the reaction. Kinase buffer was added instead to the control well without enzyme. […] After being incubated at room temperature for 1 h, Kinase-Glo reagent (10 mL) was added to each well of the PI3Kα assay plate to quench the reaction. […] The mixture was treated briefly with centrifuge, shaken slowly, and equilibrated for 40 min. Kinase Detection reagent (10 mL) was added to each well. Before reading on a plate reader for luminescence, the resultant mixture was incubated at room temperature for 1 h. After calculating the percent inhibition from the RLU values, the curves were fitted in Graphpad Prism 5 to give IC50 values.
# [2] = molecular target: PI3Kβ (Homo sapiens, UniProt P42338); assay: PI3Kβ enzymatic assay (ADP-Glo Luminescent assay); format: biochemical
# Protocol: as §3
# [3] = molecular target: PI3Kγ (Homo sapiens, UniProt P48736); assay: PI3Kγ enzymatic assay (ADP-Glo Luminescent assay); format: biochemical
# Protocol: (§1) Kinase-Glo Luminescent Kinase assay (Promega) was performed to determine the PI3Kα inhibitory activity, while ADP-Glo Luminescent assay (Promega) was performed to identify the inhibitory activity against PI3Kβ, γ, or δ. The kinase buffer was composed of HEPES (50 mM, pH 7.5), MgCl2 (3 mM), EGTA (1 mM), NaCl (100 mM), CHAPS (0.03%) and DTT (2 mM). The serially diluted compound solutions […] were successively added to a 384-well plate. Afterwards, the solution of kinase […] in the kinase buffer and the solution of substrate (5 mL) in the kinase buffer containing PIP2 and ATP were added to each well of the assay plate for starting the reaction. Kinase buffer was added instead to the control well without enzyme. The final concentrations of PI3Kα, PI3Kβ, PI3Kγ, PI3Kδ, PIP2, and ATP in corresponding kinase reaction mixture were 1.65 nM, 4.8 nM, 7.6 nM, 5.7 nM, […], respectively. After being incubated at room temperature for 1 h, Kinase-Glo reagent (10 mL) was added to each well of the PI3Kα assay plate to quench the reaction. Subsequently, the mixture needs to be mixed briefly with centrifuge and shaken slowly for 15 min before being read on a plate reader for luminescence. As for PI3Kβ, γ, or δ, reaction mixture (5 mL) was transferred to a new 384-plate and ADP-Glo reagent (5 mL) was added for stopping the reaction. The mixture was treated briefly with centrifuge, shaken slowly, and equilibrated for 40 min. Kinase Detection reagent (10 mL) was added to each well. Before reading on a plate reader for luminescence, the resultant mixture was incubated at room temperature for 1 h. After calculating the percent inhibition from the RLU values, the curves were fitted in Graphpad Prism 5 to give IC50 values.
# [4] = molecular target: PI3Kδ (Homo sapiens, UniProt O00329); assay: PI3Kδ enzymatic assay (ADP-Glo Luminescent assay); format: biochemical
# PI3Kδ, sequence (O00329 whole entry): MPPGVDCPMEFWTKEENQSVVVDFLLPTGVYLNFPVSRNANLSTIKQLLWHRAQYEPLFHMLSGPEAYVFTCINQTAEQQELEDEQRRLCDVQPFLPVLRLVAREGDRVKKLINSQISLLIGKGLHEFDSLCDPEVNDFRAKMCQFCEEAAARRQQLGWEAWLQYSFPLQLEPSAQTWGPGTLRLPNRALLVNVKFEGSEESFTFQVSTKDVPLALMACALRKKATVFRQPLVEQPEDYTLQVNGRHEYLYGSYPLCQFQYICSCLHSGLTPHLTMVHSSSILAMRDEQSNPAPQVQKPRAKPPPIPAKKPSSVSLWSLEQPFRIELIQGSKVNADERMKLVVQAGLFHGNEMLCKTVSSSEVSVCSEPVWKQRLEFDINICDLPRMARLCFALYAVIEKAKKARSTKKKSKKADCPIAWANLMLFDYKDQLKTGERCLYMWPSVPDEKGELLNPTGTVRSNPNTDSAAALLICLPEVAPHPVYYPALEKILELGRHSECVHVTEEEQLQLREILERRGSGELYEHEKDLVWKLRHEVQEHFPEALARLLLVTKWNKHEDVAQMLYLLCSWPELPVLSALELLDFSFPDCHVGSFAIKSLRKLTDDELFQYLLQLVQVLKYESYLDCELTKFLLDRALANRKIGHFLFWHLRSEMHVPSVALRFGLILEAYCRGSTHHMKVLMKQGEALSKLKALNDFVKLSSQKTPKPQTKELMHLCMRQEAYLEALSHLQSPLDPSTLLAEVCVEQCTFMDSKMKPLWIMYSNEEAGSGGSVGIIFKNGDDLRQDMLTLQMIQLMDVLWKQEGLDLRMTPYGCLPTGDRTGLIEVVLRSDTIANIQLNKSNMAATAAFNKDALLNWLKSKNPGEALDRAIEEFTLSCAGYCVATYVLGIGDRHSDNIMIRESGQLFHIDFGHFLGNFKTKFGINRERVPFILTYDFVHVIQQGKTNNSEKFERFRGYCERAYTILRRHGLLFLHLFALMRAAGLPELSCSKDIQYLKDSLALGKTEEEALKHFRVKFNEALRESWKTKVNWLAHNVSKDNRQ
# PI3Kδ, sequence (P27986 whole entry partner): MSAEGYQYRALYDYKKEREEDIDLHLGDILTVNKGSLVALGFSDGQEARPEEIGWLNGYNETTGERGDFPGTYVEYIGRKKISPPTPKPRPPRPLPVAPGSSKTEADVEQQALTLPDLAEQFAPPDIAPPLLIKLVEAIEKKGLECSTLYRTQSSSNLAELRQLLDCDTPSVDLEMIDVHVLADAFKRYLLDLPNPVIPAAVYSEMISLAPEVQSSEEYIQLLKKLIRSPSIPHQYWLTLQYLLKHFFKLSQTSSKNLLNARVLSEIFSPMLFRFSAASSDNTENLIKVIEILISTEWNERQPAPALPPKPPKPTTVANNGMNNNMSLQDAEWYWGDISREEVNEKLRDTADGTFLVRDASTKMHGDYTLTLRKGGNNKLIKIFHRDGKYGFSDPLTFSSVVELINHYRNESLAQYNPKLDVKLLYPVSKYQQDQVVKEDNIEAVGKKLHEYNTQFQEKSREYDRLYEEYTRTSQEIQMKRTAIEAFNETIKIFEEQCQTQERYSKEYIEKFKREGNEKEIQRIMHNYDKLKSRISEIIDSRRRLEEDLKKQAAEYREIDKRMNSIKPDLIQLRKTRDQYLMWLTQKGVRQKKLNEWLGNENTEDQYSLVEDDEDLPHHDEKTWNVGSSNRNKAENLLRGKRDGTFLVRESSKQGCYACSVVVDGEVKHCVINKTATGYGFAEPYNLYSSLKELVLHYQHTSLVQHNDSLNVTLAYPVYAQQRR
# Protocol: as §3
# [5] = molecular target: mTOR (1362-end, Millipore) (Homo sapiens, UniProt P42345); assay: mTOR enzymatic assay (Lance Ultra assay); format: biochemical
# mTOR (1362-end, Millipore), sequence (P42345 1362-2549 limits assumed): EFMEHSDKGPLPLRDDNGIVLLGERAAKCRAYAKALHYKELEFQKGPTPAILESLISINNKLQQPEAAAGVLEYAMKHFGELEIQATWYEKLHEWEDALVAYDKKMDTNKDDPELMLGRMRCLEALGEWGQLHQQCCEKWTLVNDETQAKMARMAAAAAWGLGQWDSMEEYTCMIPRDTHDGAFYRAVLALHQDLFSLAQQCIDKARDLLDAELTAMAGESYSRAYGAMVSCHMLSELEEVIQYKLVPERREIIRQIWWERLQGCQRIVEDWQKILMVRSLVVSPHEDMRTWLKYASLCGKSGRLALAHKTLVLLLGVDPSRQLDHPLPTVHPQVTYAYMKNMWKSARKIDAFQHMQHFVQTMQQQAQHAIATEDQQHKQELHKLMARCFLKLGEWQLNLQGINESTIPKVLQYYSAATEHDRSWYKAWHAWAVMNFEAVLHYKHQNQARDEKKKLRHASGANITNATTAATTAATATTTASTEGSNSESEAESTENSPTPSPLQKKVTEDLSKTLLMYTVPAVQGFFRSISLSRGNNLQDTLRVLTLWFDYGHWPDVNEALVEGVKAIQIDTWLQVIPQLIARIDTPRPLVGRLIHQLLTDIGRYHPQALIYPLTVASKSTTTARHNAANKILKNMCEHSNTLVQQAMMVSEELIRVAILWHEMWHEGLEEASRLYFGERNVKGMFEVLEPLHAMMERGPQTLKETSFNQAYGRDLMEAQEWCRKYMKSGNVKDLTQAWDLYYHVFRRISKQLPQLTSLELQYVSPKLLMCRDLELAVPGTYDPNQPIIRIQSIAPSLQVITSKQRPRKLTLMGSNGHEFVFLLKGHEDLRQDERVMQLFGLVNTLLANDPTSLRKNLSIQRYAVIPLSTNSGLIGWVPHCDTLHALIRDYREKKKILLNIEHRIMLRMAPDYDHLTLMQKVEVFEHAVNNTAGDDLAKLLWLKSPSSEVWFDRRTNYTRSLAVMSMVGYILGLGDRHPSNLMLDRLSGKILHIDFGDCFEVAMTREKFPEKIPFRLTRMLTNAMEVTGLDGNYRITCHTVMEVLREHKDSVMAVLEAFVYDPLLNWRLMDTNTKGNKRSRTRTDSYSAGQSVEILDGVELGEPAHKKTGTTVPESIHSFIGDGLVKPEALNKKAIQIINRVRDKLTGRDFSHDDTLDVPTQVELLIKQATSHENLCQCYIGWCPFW
# Protocol: The kinase buffer was composed of HEPES (50 mM, pH 7.5), MgCl2 (10 mM), EGTA (1 mM), MnCl2 (3 mM), Tween-20 (0.01%) and DTT (2 mM). The solution of substrate in the kinase buffer contained ULight-4E-BP1 peptide (Thr37/46, PE) and ATP. […] After being incubated at room temperature for 1 h, kinase detection buffer (10 mL) containing EDTA and Eu-anti-phospho-4E-BP1 antibody (Thr37/46, PE) was added to each well of the assay plate. Before reading on a plate reader, the mixture needs to be mixed briefly with centrifuge and then allowed to equilibrate for 1 h. After calculating the percent inhibition from Lance signal, the curves were fitted in Graphpad Prism 5 to give IC50 values.
# [6] = test system: prostate cancer PC3 cell line; assay: Anti-proliferative SRB assay, PC3; format: cell-based; conditions: PC3 cells, 72 h exposure
# Protocol: (§2) The anti-proliferative activity of compounds was evaluated by sulforhodamin B (SRB) assay. After being cultured for 10 h, cells in 96-well plates were subjected to 72 h-exposure to serially diluted compound solutions. Cells were washed with PBS and fixed with trichloroacetic acid (10%, W/V) at 4°C for 1 h. Then, cells were successively washed with PBS, stained for 0.5 h with SRB (0.4%, dissolved in 1% acetic acid), and washed by 1% acetic acid for 5 times. Protein-bound dye was extracted with unbuffered Tris base (10 mmol). After calculating the percent inhibition from absorbance, measured at 515 nm with a multiscan spectrum (Thermo Electron Co., Vantaa, Finland), the curves were fitted in Graphpad Prism 5 to give GI50 values.
# [7] = test system: colorectal cancer HCT116 cell line; assay: Anti-proliferative SRB assay, HCT116; format: cell-based; conditions: 72 h exposure
# Protocol: as §2
# [8] = test system: phos-Akt (Ser473), phos-Akt (Thr308), phos-S6 ribosomal protein (Ser235/236), phos-4E-BP1 (Thr37/46); assay: Western blot of PI3K/Akt/mTOR signaling biomarkers in PC3 cells; format: cell-based; conditions: 3 h treatment
# Protocol: The Western blot analysis for evaluating the capability to down-regulate phos-Akt (Ser473), phos-Akt (Thr308), phos-S6 ribosomal protein (Ser235/236), and phos-4E-BP1 (Thr37/46) in PC3 cells was performed according to the protocol disclosed in our previous study (Zhang et al., [2017a]) with a minor modification. The cells were seeded into six-well plate at 1 × 10^6 cells per well, and then incubated at 37°C (5% CO2) overnight prior to drug treatment.
# [9] = Pharmacokinetic study in SD rats, oral; format: in vivo; conditions: Sprague-Dawley, rat, plasma, 5 mg/kg
# Protocol: SD rats were utilized for the PK study of 8i following oral gavage at the dosage of 5 mg/kg, and the oral dose was formulated in a homogenous opaque suspension of 0.5% methylcellulose. This experiment was performed with the protocol disclosed in our previous work (Zhang et al., [2017b]). The study was carried out in accordance with institutional guidelines of the Animal Research Committee at Jiaxing University (log number JXU2015120812). The protocol was approved by the institution.
# [10] = molecular target: PI3Ks and mTOR; assay: Enzymatic activity against PI3Ks and mTOR (summary over all tested enzymes); format: biochemical; conditions: PI3Kα, PI3Kβ, PI3Kγ, PI3Kδ and mTOR
# Protocol: as §1, with “After being incubated at room temperature for 1 h, Kinase-Glo reagent (10 mL) was added to each well of the PI3Kα assay plate to quench the reaction.” left out, “As for PI3Kβ, γ, or δ, reaction mixture (5 mL) was transferred to a new 384-plate and ADP-Glo reagent (5 mL) was added for stopping the reaction. The mixture was treated briefly with centrifuge, shaken slowly, and equilibrated for 40 min. Kinase Detection reagent (10 mL) was added to each well.” left out, “After calculating the percent inhibition from the RLU values, the curves were fitted in Graphpad Prism 5 to give IC50 values.” left out
# Lance Ultra assay was performed to determine the mTOR (1362-end, Millipore) inhibitory activity. […] Before reading on a plate reader, the mixture needs to be mixed briefly with centrifuge and then allowed to equilibrate for 1 h. […]
# [11] = Liver microsomal stability assay, HLM; conditions: human, liver microsomes
# [12] = Liver microsomal stability assay, RLM; conditions: Sprague-Dawley, rat, liver microsomes
# [13] = in vitro; conditions: human, microsomes
# [14] = in vitro; conditions: Sprague-Dawley, rat, microsomes
# PI3Kα, sequence (P42336 whole entry): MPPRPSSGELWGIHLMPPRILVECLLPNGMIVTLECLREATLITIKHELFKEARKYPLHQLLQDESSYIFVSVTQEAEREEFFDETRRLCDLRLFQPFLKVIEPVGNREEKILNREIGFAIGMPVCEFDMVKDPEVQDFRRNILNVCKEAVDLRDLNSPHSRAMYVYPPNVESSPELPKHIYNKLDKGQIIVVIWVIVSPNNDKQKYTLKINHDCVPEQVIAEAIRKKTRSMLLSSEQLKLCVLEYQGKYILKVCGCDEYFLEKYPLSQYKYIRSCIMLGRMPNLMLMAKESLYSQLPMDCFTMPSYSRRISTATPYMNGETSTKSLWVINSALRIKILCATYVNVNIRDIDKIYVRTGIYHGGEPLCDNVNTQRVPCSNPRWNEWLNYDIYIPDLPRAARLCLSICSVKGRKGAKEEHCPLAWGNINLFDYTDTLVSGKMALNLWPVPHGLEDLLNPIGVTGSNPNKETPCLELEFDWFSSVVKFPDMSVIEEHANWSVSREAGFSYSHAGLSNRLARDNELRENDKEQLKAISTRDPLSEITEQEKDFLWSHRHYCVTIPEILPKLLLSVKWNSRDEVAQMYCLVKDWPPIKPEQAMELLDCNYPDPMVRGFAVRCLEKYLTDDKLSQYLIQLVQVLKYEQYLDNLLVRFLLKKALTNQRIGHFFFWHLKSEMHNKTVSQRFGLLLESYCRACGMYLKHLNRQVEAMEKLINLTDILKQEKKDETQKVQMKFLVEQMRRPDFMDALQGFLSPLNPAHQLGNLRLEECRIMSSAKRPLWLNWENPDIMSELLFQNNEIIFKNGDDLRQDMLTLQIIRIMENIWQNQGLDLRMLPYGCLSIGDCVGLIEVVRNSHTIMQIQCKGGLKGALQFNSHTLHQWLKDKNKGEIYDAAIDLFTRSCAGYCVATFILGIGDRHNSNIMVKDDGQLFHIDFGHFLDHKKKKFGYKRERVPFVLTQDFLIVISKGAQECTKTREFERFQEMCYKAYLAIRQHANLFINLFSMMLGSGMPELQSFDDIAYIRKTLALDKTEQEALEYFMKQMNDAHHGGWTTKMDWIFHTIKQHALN
# PI3Kα, sequence (P27986 whole entry partner): as the sequence (P27986 whole entry partner) above
smiles,measurement,setting,value
"COc1ncc(-c2ccc3nccc(/C=C/C(=O)N4CCN(C)CC4)c3c2)cc1NS(=O)(=O)c1ccc(F)cc1F [8i, (E)-2,4-difluoro-N-(2-methoxy-5-(4-(3-(4-methylpiperazin-1-yl)-3-oxoprop-1-en-1-yl)quinolin-6-yl)pyridin-3-yl)benzenesulfonamide]",IC50,[1],0.5 nM
same,IC50,[2],1.5 nM
same,IC50,[3],0.55 nM
same,IC50,[4],1 nM
same,IC50,[5],1.3 nM
same,GI50,"[6]; Homo sapiens, PC-3, 72 h",< 500 nM
same,GI50,[6],400 nM
same,GI50 HCT116,[7]; HCT116 cells,sub-micromolar
same,GI50,"[7]; Homo sapiens, HCT-116, HCT116 cells",470 nM
same,effect on the level of phos-Akt (Ser473) compared with GSK2126458,[8],stronger
same,"down-regulation of phos-Akt (Ser473), phos-Akt (Thr308), phos-S6 ribosomal protein (Ser235/236) and phos-4E-BP1 (Thr37/46)",[8]; at a concentration as low as 5 nM,dramatically down-regulated; also recorded: remarkably down-regulated
same,AUC(0-inf),[9],412 ng·h/mL
same,AUC(0-t),[9],379 ng·h/mL
same,Cmax,[9],249 ng/mL
same,half-life,[9]; read-out: elimination half-life t1/2 (converted),1.73 h
same,IC50 values against all the tested enzymes,[10],sub-nanomolar or low nanomolar level
same,CLint scaled,[11],16.6 mL/min/kg
same,half-life,[11],1.25 h
same,microsomal CLint,[11],18.5 µL/min/mg
same,remaining at 1 h,[11],57.1%
same,CLint scaled,[12],< 17.3 mL/min/kg
same,half-life,[12],> 2.42 h
same,microsomal CLint,[12],< 9.6 µL/min/mg
same,remaining at 1 h,[12],72.8%
C[C@]12CC[C@H]3[C@@H](CCC4=CC(=O)CC[C@@]43C)[C@@H]1CC[C@@H]2O [Testosterone],CLint scaled,[13],91.1 mL/min/kg
same,remaining at 1 h,[13],4.8%
same,CLint scaled,[14],3780 mL/min/kg
